Experiments:
[1] = Antigenic response after Fetuin injection; type: in vivo; conditions: mice, rat and rabbits to bovine
Source text: However, the species are mice, rat and rabbits to bovine, not human to bovine. The amino acid sequence of Fetuin homologue between species is about 65%. Because the mechanism of Fetuin exerting the drug effect is by binding to the growth factors, this is expected to have less immune response than other protein nature drugs.

[2] = tested on: CCD 18 Co (normal colon fibroblast); experiment: Fetuin-induced apoptosis, Hoechst staining confirmed by MTS assay; type: cell-based, Human
Procedure: (§1) The purified fetuin was tested on various cancer cell lines. […] The DNA condensation and breakage of nuclei which are the characteristics for apoptosis were observed by staining the cell with Hoechst dye at 0.1 ug/ml.
(§2) Various concentrations of Zn-charged fetuin prepared as described were incubated with cell lines for 6 hr. Percent of cell under apoptosis was determined by Hoechst staining and confirmed by MTS assay. The concentration of Zn-charged fetuin for the induction of 50% of cells under apoptosis (LD50) was determined. Each data represents the average of three assays.

[3] = tested on: CCD 39 Lu (normal lung fibroblast); experiment: as above; type: cell-based, Human
Procedure: as §1, §2

PC-3 cells = experiment: as above; type: cell-based, Human
Procedure: as §1, §2

MCF-7 cells = experiment: as above; type: cell-based, Human
Procedure: as §1, §2

[4] = tested on: WI 38 (normal lung fibroblast); experiment: as above; type: cell-based, Human
Procedure: as §1, §2

Calu-1 cells = experiment: as above; type: cell-based, Human
Procedure: as §1, §2

Hep G2 cells = experiment: as above; type: cell-based, Human
Procedure: as §1, §2

Colo 205 cells = experiment: as above; type: cell-based, Human
Procedure: as §1, §2

HL-60 cells = experiment: as above; type: cell-based, Human
Procedure: as §1, §2

[5] = tested on: immune system (splenic T- and B-cells, response to SRBC); conditions: mouse, in vivo
Procedure: The Balb/C mice weighed 20-30 g with six to eight weeks of age and divided equally between male and female are used. Fetuin is administered IV or IP to each group of six animals either a single dose or multiple doses ranging from 0.05 mg to 5 mg per 20 g body weight. The volume of each injection is 0.2 ml. Phosphate buffered saline is used as the control and dilution vehicle.
Flow cytometric characterization of splenic T- and B-cells in Fetuin treated mice: T cells of mice can be recognized by the presence of Thy 1.2 or Thy 1.1 (depending on the genotype of the mouse), receptors isolated on the surface of peripheral T cells (lymph node, spleen and blood) as well as thymic epithelia.

LNCaP cells = experiment: Fetuin-induced apoptosis, Hoechst staining confirmed by MTS assay; type: cell-based, Human
Procedure: as §1
Fetuin purified by modified Spiro method was further incubated with Zinc Acetate or Barium Acetate (0.25M) at room temperature for 1 hr. Free ions were removed by repetitive concentration against 20 volumes of PBS three times. Fetuin, Zn-charged fetuin and Ba-charged fetuin (5 uM) and PBS were then separately incubated with LNCaP cells for 4 hr. Percent of cells under apoptosis was determined by Hoechst staining and confirmed by MTS assay. Each data represents the average of two assays. Zn-charged or Ba-charged fetuin may contain free Zn or Ba (about 30 uM). However, all the cell lines are not affected by Zn or Ba alone at all concentrations tested (up to 66 uM).
as §2

P388 leukemia = experiment: P388 Leukemia Model; type: in vivo; conditions: P388-bearing DBA/2 mice; for Survivors: 10 per group
Procedure: All mice used were kept according to NIH standard regulation. The DBA/2 mice were divided into 4 groups, 10 mice in each group. The P388 innoculum tumor was induced by intraperitoneal injection of 10^6 cells per 0.1 ml innoculum. All doses were made up to a volume of 0.5 ml. Treatment was intraperitoneal injection of 0.5 ml saline (control), 0.002 ml of 10 mg/ml Fetuin (Group I), 0.02 ml (Group II) and 0.2 ml (Group III) for 10 days following tumor transplant. Mortalities were recorded daily. Results are expressed as the percent increase in life span (ILS) in Table 2.
ILS=100×Median Life Span Treated−Median Life Span Control

[6] = Zn-charged fetuin, 6 hr, average of three assays
[7] = purified fetuin, Hoechst dye 0.1 ug/ml

What does the source list for “Fetuin: Fetal bovine fetuin purified from fetal bovine serum by modified Spiro method; 60 Kd glycoprotein, homologue of alpha 2-HS glycoprotein”?
hypersensitivity reaction after Fetuin injection [1]: no hypersensitivity reaction was shown; LD50 of Fetuin-induced Apoptosis ([2]; CCD 18 Co, Zn-charged fetuin, 6 hr, average of three assays): >100 µM; induction of apoptosis ([2]; CCD18Co, purified fetuin, Hoechst dye 0.1 ug/ml): did not induce apoptosis; LD50 of Fetuin-induced Apoptosis ([3]; CCD 39 Lu, Zn-charged fetuin, 6 hr, average of three assays): >100 µM; induction of apoptosis ([3]; CCD39Lu, purified fetuin, Hoechst dye 0.1 ug/ml): did not induce apoptosis; LD50 of Fetuin-induced Apoptosis (PC-3 cells; [6]): 1 µM; induction of apoptosis (PC-3 cells; [7]): strongly induced apoptosis; LD50 of Fetuin-induced Apoptosis (MCF-7 cells; [6]): 8 µM; induction of apoptosis (MCF-7 cells; [7]): strongly induced apoptosis; LD50 of Fetuin-induced Apoptosis ([4]; WI 38, Zn-charged fetuin, 6 hr, average of three assays): >100 µM; induction of apoptosis ([4]; WI-38, purified fetuin, Hoechst dye 0.1 ug/ml): did not induce apoptosis; LD50 of Fetuin-induced Apoptosis (Calu-1 cells; [6]): 4 µM; induction of apoptosis (Calu-1 cells; [7]): strongly induced apoptosis; LD50 of Fetuin-induced Apoptosis (Hep G2 cells; Hep G2, Zn-charged fetuin, 6 hr, average of three assays): 20 µM; induction of apoptosis (Hep G2 cells; HepG2, purified fetuin, Hoechst dye 0.1 ug/ml): strongly induced apoptosis; LD50 of Fetuin-induced Apoptosis (Colo 205 cells; [6]): 5 µM; induction of apoptosis (Colo 205 cells; [7]): strongly induced apoptosis; LD50 of Fetuin-induced Apoptosis (HL-60 cells; HL-60, Zn-charged fetuin, 6 hr, average of three assays): 5 µM; induction of apoptosis (HL-60 cells; HL-60, purified fetuin, Hoechst dye 0.1 ug/ml): strongly induced apoptosis; apoptosis of HL-60 cells (HL-60 cells; at 1 uM): induce apoptosis; cell surface density of s-Ig on the B-cells [5]: no significant differences; fraction of lymphocytes which were B-cells (s-Ig+) [5]: no differences between treatment groups; fraction of splenic lymphocyte that were T-cells [5]: remained constant; mean level of expression of Thy 1.2 [5]: did not differ significantly; LD50 of Fetuin-induced Apoptosis (LNCaP cells; LNCaP, Zn-charged fetuin, 6 hr, concentration for 50% of cells under apoptosis, average of three assays): 1 µM; induction of apoptosis (LNCaP cells; LNCaP, purified fetuin, Hoechst dye 0.1 ug/ml): strongly induced apoptosis; apoptotic activity by method of preparation (LNCaP cells; Pederson Method (Sigma) vs modified Spiro method): induced apoptosis; apoptosis-inducing activity (LNCaP cells; Substitution of Zinc by Barium): completely abolished; apoptosis-inducing activity in LNCaP cells (LNCaP cells; fetal vs mature fetuins at the same concentration): strongly induced apoptosis; Survivors (P388 leukemia; 0.002 ml of 10 mg/ml Fetuin ip for 10 days, bracket (31) = day): 1 (31); Survivors (P388 leukemia; 0.02 ml of 10 mg/ml Fetuin ip for 10 days, bracket (29) = day): 1 (29); Survivors (P388 leukemia; 0.2 ml of 10 mg/ml Fetuin ip for 10 days (highest dose), bracket (58) = day, listed as Fetal fetuin): 8; (ILS) Increased Life Span (P388 leukemia; 0.002 ml of 10 mg/ml Fetuin ip for 10 days): 29%; (ILS) Increased Life Span (P388 leukemia; 0.02 ml of 10 mg/ml Fetuin ip for 10 days): 17.2%; (ILS) Increased Life Span (P388 leukemia; 0.2 ml of 10 mg/ml Fetuin ip for 10 days (highest dose)): 141%

— US20030044400A1, “Composition and method for treating cells” (priority 2001, published 2003)
